Source: a melting point compilation (Tetko et al.; mined from patent text by program, amines drawn as free bases though some values may be those of a salt)

SMILES | melting point
N#CCc1cccc2c1C=CN(C(=O)c1ccccc1)C2C#N (stereo not drawn) | 66.4 to 69.7 °C
Clc1cc(CBr)c(CBr)cc1Cl | 55 to 56 °C
Cn1c(Nc2c(Cl)cccc2Cl)nc2cc(C(=O)NC3CCC(C)(C)CC3)ccc21 | 189 to 190 °C
N#CCOc1cc2c(cc1C#Cc1ccccc1)NC(=O)CC(c1cccc(C#N)c1)=N2 | 212 °C
CC(=O)c1cnc(Br)c(C)c1 | 114 to 115 °C
CCCCCCCC(=O)N(C)Cc1cccc(-c2ccc(Nc3ccccc3C(=O)O)cc2)c1 | 45 °C
CC(C)(O)c1ccc(N2CCN(c3ccncc3)CC2)cc1 | 234 to 235 °C
O=S(=O)(c1ccccc1)c1ccc2c(c1)NCC(C(F)F)(C(F)F)O2 | 100 to 113 °C
Cc1ccccc1CC(=NC#N)NC(NC(=O)CCCCc1ccccc1)C(C)(C)C (stereo not drawn) | 151 to 152 °C
CC(CO)(CO)Nc1nc(SCc2cccc(F)c2F)nc2nc(N)cnc12 | 220 to 227 °C
COC(=O)C=NOCc1c(F)cccc1COc1ccccc1C | 108 °C
COc1ccc(C2N3CCSC3=NC2(O)c2ccc(F)cc2)cc1 (stereo not drawn) | 150 to 151 °C
O=C(CCCCl)Nc1cccc2cccnc12 | 62 to 63 °C
O=[N+]([O-])c1ccc(S(=O)(=O)c2ncc(Cl)cn2)s1 | 144 to 146 °C
N#Cc1ccc(-c2ccc(O)c(-c3nc4cc(C#N)ccc4[nH]3)c2)cc1 | > 340 °C
CCc1cc(SCc2cccc3oc(-c4ccc(C(F)(F)F)cc4)nc23)ccc1OCC(=O)O | 127 to 128 °C
C[C@@H]1CCN(C(=O)OC(C)(C)C)C[C@@H]1N(C)C(=O)OC(C)(C)C | 118 °C
CC12CCC3C(CC=C4C=C(OCc5ccccc5)CCC43C)C1CCC2=O (stereo not drawn) | 172 to 178 °C
CCc1cc2c(=O)c(C(=O)O)cn(Cc3ccc(-c4ccccc4-c4nnn[nH]4)cc3)c2s1 | 153 to 157 °C

SMILES | melting point
CN(C)c1ccc(-c2cc(F)c(F)cc2-c2ccc(S(N)(=O)=O)cc2)cc1Cl | 193 to 194 °C
CCc1nc(-c2cccc(C#N)c2)c(-c2ccnc(N)c2)s1 | 178 to 179 °C
CC(C(O)c1ccc(OCc2ccccc2)c(OCc2ccccc2)c1)N1CCC(n2c(=O)[nH]c3ccccc32)CC1 (stereo not drawn) | 146 to 148 °C
c1ccc2c(-c3nc(NC4CCCCC4)c4ccccc4n3)nccc2c1 | 275 to 277 °C
Cc1nnc2ccc(-c3cccc(N(C)C(=O)C4CCC4)c3)nn12 | 171 to 173 °C
c1ccc(CCN2CCC(CCc3cc(-c4ccccc4)nc4ccccc34)CC2)cc1 | 80 °C
c1ccc(Cc2ccc3c(c2)nc2n3CCCS2)cc1 | 145 to 147 °C
COC(=O)c1cc2cc(OC)c(OC)cc2cc1C(=O)O | 181 to 183 °C
Cc1cc2nc3ccc(C(=O)O)cn3c(=O)c2s1 | 338 to 340 °C
C[C@@H](C(=O)O)N(C)C(=O)c1cc(C(F)(F)F)cc(N)c1N | 96 °C
Cc1ccc(C(=C/C=C/C(=O)Oc2ccc([N+](=O)[O-])cc2)c2ccc(C)cc2)cc1 | 154 °C
COC(=O)c1ccc2sc(/C=C/c3cccc(N)c3)nc2c1 | 165 to 167 °C
Cc1cc2c(cc1S(=O)(=O)c1cc(Cl)cc(Cl)c1)OC(C(=O)O)O2 (stereo not drawn) | 210 to 214 °C
O=C1N(c2ccc(Cl)cc2Cl)Cc2cnc(Nc3ccccc3)nc2N1c1cccc(CCO)c1 | 213 to 217 °C
CN1CCC(=C2c3c(ccn3C)C=Cn3cnnc32)CC1 | 262 °C
CCC(NC(=O)COc1c(C)cccc1C)C(N)=O (stereo not drawn) | 182 to 184 °C
COc1ccc(S(=O)(=O)N2Cc3ccccc3N(C(=O)c3cccc(C(F)(F)F)c3)CC2C(=O)NO)cc1 (stereo not drawn) | 128 to 130 °C
COc1c(-c2cc3c(s2)CCCC3N=[N+]=[N-])ccc2c(=O)c(C(=O)O)cn(C3CC3)c12 (stereo not drawn) | 134 to 136 °C
Nc1ccc(S(=O)(=O)c2cc(-c3ccc(Cl)cc3)nc(N3CCCC3)c2)cc1 | 236 to 237 °C
